For 17 compounds, inhibition, EC50 and IC50 results are on record in publication PMC6237161, “Synthesis, preliminarily biological evaluation and molecular docking study of new Olaparib analogues as multifunctional PARP-1 and cholinesterase inhibitors” (Journal of Enzyme Inhibition and Medicinal Chemistry, 2018).

For one assay, the target named is T1, PARP-1 enzyme (Homo sapiens, UniProt P09874).
T1 construct: purchased Trevigen 4690–096-K
In words: biochemical. To be noted: mean ± SD, n=3; for inhibition at 0.5 µM: PARP-1, measured at the conc. of 0.5 μM, read-out: Inhibition rate (%). The protocol:
Olaparib was used as positive control. […] Then, the standard curve was drawn and the inhibition rate of each test compound was calculated.

Assay [1] concerns breast cancer cell line MDA-MB-436. In words: MTT assay for cell growth inhibition. Type of assay: cell-based. The settings on record: Homo sapiens, read-out: EC50 (μM) MDA-MB-436 cell inhibitory activity. The protocol:
The anti-proliferative activities of synthesized compounds were assessed against breast cancer cell line MDA-MB-436 by the 3-(4, 5-Dimethylthiazol-2-yl)-2,5-diphenyltetrazolium bromide (MTT) assay. The MDA-MB-436 cell was purchased from Chinese Academy of Sciences. […]. After treated with compounds for 72 h, cells were incubated with 20 μL of 5 mg/mL MTT for 4 h. The culture medium was removed, and 150 μL DMSO was added to dissolve the formazan crystals. Wells containing only media were used for background correction. The optical density was measured spectrophotometrically at 490 nm. EC50 values were calculated using GraphPad Prism 6 software. Data were expressed as mean ± SEM.

In assay [2] the target is T2, AChE from electric eel (EeAChE) (Electrophorus electricus, UniProt O42275).
T2 construct: purchased Sigma-Aldrich
In words: biochemical. The procedure: (§1) The test compounds were dissolved in a minimum volume of DMSO (1%) and were diluted using sodium phosphate buffer (0.1 M, pH 7.4). A reaction mixture containing 20 μL sodium phosphate buffer, 100 μL DTMB (1 mM) and 40 μL AChE (0.2 U/Ml)/BChE (0.3 U/mL) was incubated with 20 μL of various concentrations of test compounds at 37 °C for 15 min followed by the addition of the substrate (20 μL) acetylthiocholine iodide (1 mM) or S-butyrylthiocholine iodide (1 mM) and incubation for another 3 min. […] The inhibition per cent was calculated by the following expression: (1-Ai/Ac) × 100, where Ai and Ac were the absorbance obtained for AChE/BChE in the presence and absence of inhibitors, respectively. […]

Assay [3] has as its target T3, BChE from equine serum (eqBChE) (Equus caballus, UniProt P81908).
T3 construct: butyrylcholinesterase (eqBChE, from equine serum); purchased Sigma-Aldrich; host or cells: equine serum
Kind of assay: biochemical. The protocol: as §1

[4] abbreviates: MDA-MB-436, MTT, incubated for 72 h, mean ± SD, n=3, concentration required to reduce cell proliferation by 50%.
The mark [5] stands for this setting: AChE from electric eel, mean ± SD, n=3, read-out: IC50 (μM) AChE.
Setting [6] is: BChE from equine serum, mean ± SD, n=3, read-out: IC50 (μM) BChE.

Read-outs that look alike come from different tables or passages of the source.

T3 sequence (P81908 whole entry): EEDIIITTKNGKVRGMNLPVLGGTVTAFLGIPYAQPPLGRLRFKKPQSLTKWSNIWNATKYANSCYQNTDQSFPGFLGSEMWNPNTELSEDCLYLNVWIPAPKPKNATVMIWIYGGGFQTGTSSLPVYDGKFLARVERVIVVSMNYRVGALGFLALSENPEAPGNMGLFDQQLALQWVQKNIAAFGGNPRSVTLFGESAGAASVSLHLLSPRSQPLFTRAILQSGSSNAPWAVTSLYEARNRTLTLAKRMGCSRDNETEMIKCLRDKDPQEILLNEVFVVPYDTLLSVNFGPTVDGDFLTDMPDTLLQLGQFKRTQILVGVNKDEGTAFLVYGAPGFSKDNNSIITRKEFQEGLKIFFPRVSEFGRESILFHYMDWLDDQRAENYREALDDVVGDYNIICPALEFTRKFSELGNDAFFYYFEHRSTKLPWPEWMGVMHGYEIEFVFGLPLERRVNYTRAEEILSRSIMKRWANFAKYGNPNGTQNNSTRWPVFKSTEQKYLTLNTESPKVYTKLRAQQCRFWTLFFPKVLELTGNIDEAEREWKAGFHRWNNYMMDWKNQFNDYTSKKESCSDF
T1 sequence (P09874 whole entry): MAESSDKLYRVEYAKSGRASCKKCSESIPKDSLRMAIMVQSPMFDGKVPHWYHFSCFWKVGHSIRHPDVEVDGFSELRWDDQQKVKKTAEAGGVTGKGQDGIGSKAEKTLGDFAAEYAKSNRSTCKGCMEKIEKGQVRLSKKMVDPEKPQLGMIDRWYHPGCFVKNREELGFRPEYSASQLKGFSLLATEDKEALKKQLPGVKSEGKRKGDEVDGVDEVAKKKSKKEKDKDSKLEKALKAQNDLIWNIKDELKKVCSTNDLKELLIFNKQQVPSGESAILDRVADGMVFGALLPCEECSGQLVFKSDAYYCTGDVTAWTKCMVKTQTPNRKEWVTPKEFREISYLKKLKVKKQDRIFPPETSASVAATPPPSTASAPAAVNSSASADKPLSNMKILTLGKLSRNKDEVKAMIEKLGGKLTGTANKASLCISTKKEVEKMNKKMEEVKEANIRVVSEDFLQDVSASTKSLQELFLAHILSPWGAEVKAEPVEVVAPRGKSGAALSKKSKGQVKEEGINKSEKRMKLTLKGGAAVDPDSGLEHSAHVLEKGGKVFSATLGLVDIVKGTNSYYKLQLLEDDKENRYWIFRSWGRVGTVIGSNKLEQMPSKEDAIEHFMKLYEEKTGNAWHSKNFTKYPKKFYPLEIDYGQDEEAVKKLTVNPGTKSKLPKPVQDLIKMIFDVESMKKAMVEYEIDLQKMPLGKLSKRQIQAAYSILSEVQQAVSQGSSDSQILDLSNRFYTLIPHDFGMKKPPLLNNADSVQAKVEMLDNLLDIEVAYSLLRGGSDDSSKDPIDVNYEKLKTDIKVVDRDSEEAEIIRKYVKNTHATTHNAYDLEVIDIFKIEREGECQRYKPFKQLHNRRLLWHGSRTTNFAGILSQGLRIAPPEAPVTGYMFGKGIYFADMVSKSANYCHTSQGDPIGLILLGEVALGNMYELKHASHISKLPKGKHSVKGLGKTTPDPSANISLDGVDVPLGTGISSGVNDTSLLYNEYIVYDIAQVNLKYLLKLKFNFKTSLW
T2 sequence (O42275 24-633): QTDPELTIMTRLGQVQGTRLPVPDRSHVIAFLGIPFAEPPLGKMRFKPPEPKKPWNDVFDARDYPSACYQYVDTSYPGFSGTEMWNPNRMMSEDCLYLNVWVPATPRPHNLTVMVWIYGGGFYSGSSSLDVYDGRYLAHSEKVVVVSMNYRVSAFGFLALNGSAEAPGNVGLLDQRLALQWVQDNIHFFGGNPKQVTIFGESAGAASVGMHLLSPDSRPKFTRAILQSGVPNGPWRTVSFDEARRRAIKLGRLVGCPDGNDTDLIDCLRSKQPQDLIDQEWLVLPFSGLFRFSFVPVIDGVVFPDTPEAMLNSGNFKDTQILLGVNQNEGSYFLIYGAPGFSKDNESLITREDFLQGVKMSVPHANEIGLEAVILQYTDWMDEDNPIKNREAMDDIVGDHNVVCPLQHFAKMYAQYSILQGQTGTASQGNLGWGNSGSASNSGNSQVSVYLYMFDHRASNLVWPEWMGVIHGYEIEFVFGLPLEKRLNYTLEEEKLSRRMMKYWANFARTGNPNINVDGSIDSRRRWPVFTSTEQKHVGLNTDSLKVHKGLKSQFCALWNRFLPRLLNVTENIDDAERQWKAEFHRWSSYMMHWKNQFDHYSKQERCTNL

Take `O=C(/C=C/c1ccccc1)N1CCN(C(=O)c2cc(Cc3n[nH]c(=O)c4ccccc34)ccc2F)CC1` [5a, (E)-4-{[3-[4-(3-phenylacryloyl)piperazine-1-carbonyl]-4-fluorophenyl]methyl}-2H-phthalazin-1-one]: the inhibition at 0.5 µM at PARP-1 enzyme came to 75.2 ± 4.84%. For the same compound, the EC50 in assay [1] (setting [4]) stood at 38.2 ± 2.15 µM. In addition, the concentration for half-maximal inhibition (IC50) in assay [2] (setting [5]) worked out at 52.9 ± 3.02 µM; in assay [3] (setting [6]), 22.4 ± 1.19 µM.

Regarding `COc1ccc(/C=C/C(=O)N2CCN(C(=O)c3cc(Cc4n[nH]c(=O)c5ccccc45)ccc3F)CC2)cc1OC` [5b, (E)-4-{[3-[4–(3-(3,4-dimethoxyphenyl)acryloyl)piperazine-1-carbonyl]-4-fluorophenyl]methyl}-2H-phthalazin-1-one], at PARP-1 enzyme, the inhibition at 0.5 µM was determined as 77.2 ± 3.89%. Also, the EC50 in assay [1] (setting [4]) was found to be 41.2 ± 1.95 µM. In addition, the IC50 in assay [2] (setting [5]) was 45.2 ± 1.38 µM; in assay [3] (setting [6]), 17.8 ± 0.72 µM.

`COc1ccc(/C=C/C(=O)N2CCN(C(=O)c3cc(Cc4n[nH]c(=O)c5ccccc45)ccc3F)CC2)cc1` [5c, (E)-4-{[3-[4–(3-(4-methoxyphenyl)acryloyl)piperazine-1-carbonyl]-4-fluorophenyl]methyl} -2H-phthalazin-1-one]: the inhibition at 0.5 µM at PARP-1 enzyme stood at 89.2 ± 10.6%. Besides, the IC50 was 144 ± 5.26 nM against PARP-1 enzyme, 55.8 ± 0.6 µM in assay [2] (setting [5]) and 179 ± 5.89 µM in assay [3] (setting [6]). In assay [1] (setting [4]), the EC50 stood at 14.2 ± 3.16 µM.

For the compound `Cc1ccc(/C=C/C(=O)N2CCN(C(=O)c3cc(Cc4n[nH]c(=O)c5ccccc45)ccc3F)CC2)cc1` [5d, (E)-4-{[3-[4-(3-(4-methylphenyl)acryloyl)piperazine-1-carbonyl]-4-fluorophenyl]methyl} -2H-phthalazin-1-one], on PARP-1 enzyme, the inhibition at 0.5 µM is 64.2 ± 4.59%. The EC50 in assay [1] (setting [4]) was 35.1 ± 3.42 µM. The IC50 in assay [2] (setting [5]) came to 72 ± 3.84 µM; in assay [3] (setting [6]), 27.8 ± 0.87 µM.

In the case of `COc1ccccc1/C=C/C(=O)N1CCN(C(=O)c2cc(Cc3n[nH]c(=O)c4ccccc34)ccc2F)CC1` [5e, (E)-4-{[3-[4-(3-(2-methoxyphenyl)acryloyl)piperazine-1-carbonyl]-4-fluorophenyl]methyl}-2H-phthalazin-1-one], the inhibition at 0.5 µM on PARP-1 enzyme was 62.6 ± 3.65%. Besides, the EC50 in assay [1] (setting [4]) stood at 44.2 ± 1.95 µM. The IC50 was determined as 56.9 ± 4.3 µM in assay [2] (setting [5]) and 26.4 ± 1.93 µM in assay [3] (setting [6]).

Consider `COc1ccc(OC)c(/C=C/C(=O)N2CCN(C(=O)c3cc(Cc4n[nH]c(=O)c5ccccc45)ccc3F)CC2)c1` [5f, (E)-4-{[3-[4–(3-(2,5-dimethoxyphenyl)acryloyl)piperazine-1-carbonyl]-4-fluorophenyl]methyl} -2H-phthalazin-1-one], for which the inhibition at 0.5 µM on PARP-1 enzyme turned out to be 75.6 ± 3.61%. For the same compound, in assay [1] (setting [4]), the EC50 came out at 30.2 ± 3.25 µM. For the same compound, the figures for the IC50 in assay [2] (setting [5]) and in assay [3] (setting [6]) were 76.9 ± 4.13 µM and 35.7 ± 2.98 µM, respectively.

Regarding `O=C(/C=C/c1ccc(F)cc1)N1CCN(C(=O)c2cc(Cc3n[nH]c(=O)c4ccccc34)ccc2F)CC1` [5g, (E)-4-{[3-[4–(3-(4-fluorophenyl)acryloyl)piperazine-1-carbonyl]-4-fluorophenyl]methyl} -2H -phthalazin-1-one], the inhibition at 0.5 µM at PARP-1 enzyme amounted to 85.6 ± 3.69%. In addition, the IC50 came to 397 ± 7.01 nM on PARP-1 enzyme, 173 ± 30 µM in assay [2] (setting [5]) and 105 ± 12.5 µM in assay [3] (setting [6]). Moreover, the EC50 in assay [1] (setting [4]) amounted to 13 ± 2.14 µM.

For the compound `O=C(/C=C/c1ccc(C(F)(F)F)cc1)N1CCN(C(=O)c2cc(Cc3n[nH]c(=O)c4ccccc34)ccc2F)CC1` [5h, (E)-4-{[3-[4–(3-(4-trifluoromethylphenyl)acryloyl)piperazine-1-carbonyl]-4-fluorophenyl]methyl} -2H -phthalazin-1-one], at PARP-1 enzyme, the inhibition at 0.5 µM was 89.5 ± 12.6%. Besides, the values for the IC50 (on PARP-1 enzyme; in assay [2] (setting [5]); in assay [3] (setting [6])) were 295 ± 8.25 nM, 136 ± 12.5 µM and 56.8 ± 4.36 µM, respectively. Besides, in assay [1] (setting [4]), the EC50 was 14.8 ± 1.42 µM.

For the compound `O=C(/C=C/c1cccc(F)c1)N1CCN(C(=O)c2cc(Cc3n[nH]c(=O)c4ccccc34)ccc2F)CC1` [5i, (E)-4-{[3-[4–(3-(3-fluorophenyl)acryloyl)piperazine-1-carbonyl]-4-fluorophenyl]methyl} -2H -phthalazin-1-one], on PARP-1 enzyme, the inhibition at 0.5 µM stood at 88.2 ± 5.24%. In addition, the IC50 was determined as 267 ± 9.32 nM against PARP-1 enzyme, 110 ± 9.18 µM in assay [2] (setting [5]) and 33.4 ± 4.14 µM in assay [3] (setting [6]). The EC50 in assay [1] (setting [4]) amounted to 14.2 ± 5.21 µM.

As for `O=C(/C=C/c1ccc(Cl)cc1)N1CCN(C(=O)c2cc(Cc3n[nH]c(=O)c4ccccc34)ccc2F)CC1` [5j, (E)-4-{[3-[4–(3-(4-chlorophenyl)acryloyl)piperazine-1-carbonyl]-4-fluorophenyl]methyl} -2H -phthalazin-1-one], the inhibition at 0.5 µM at PARP-1 enzyme amounted to 75.5 ± 4.54%. In assay [1] (setting [4]), the EC50 is 45.2 ± 1.68 µM. Further, the IC50 came to 86.5 ± 5.12 µM in assay [2] (setting [5]) and 37.1 ± 2.37 µM in assay [3] (setting [6]).

With `O=C(/C=C/c1ccc(Br)cc1)N1CCN(C(=O)c2cc(Cc3n[nH]c(=O)c4ccccc34)ccc2F)CC1` [5k, (E)-4-{[3-[4–(3-(4-bromophenyl)acryloyl)piperazine-1-carbonyl]-4-fluorophenyl]methyl} -2H -phthalazin-1-one], the inhibition at 0.5 µM on PARP-1 enzyme stood at 43.2 ± 6.54%. For the same compound, the EC50 in assay [1] (setting [4]) was 112 ± 5.24 µM. The IC50 in assay [2] (setting [5]) stood at 80.7 ± 4.87 µM; in assay [3] (setting [6]) it was 45.8 ± 3.76 µM.

In the case of `O=C(/C=C/c1cccc([N+](=O)[O-])c1)N1CCN(C(=O)c2cc(Cc3n[nH]c(=O)c4ccccc34)ccc2F)CC1` [5l, (E)-4-{[3-[4–(3-(3-nitrophenyl)acryloyl)piperazine-1-carbonyl]-4-fluorophenyl]methyl} -2H -phthalazin-1-one], the inhibition at 0.5 µM on PARP-1 enzyme is 95.7 ± 4.35%. Further, the IC50 against PARP-1 enzyme was 16.1 ± 1.25 nM; in assay [2] (setting [5]), 24.6 ± 1.1 µM; in assay [3] (setting [6]), 9.16 ± 0.91 µM. For the same compound, the EC50 in assay [1] (setting [4]) stood at 11.6 ± 2.15 µM.

Turning to `O=C(/C=C/c1ccc([N+](=O)[O-])cc1)N1CCN(C(=O)c2cc(Cc3n[nH]c(=O)c4ccccc34)ccc2F)CC1` [5m, (E)-4-{[3-[4–(3-(4-nitrophenyl)acryloyl)piperazine-1-carbonyl]-4-fluorophenyl]methyl} -2H -phthalazin-1-one], at PARP-1 enzyme, the inhibition at 0.5 µM was determined as 93.2 ± 5.28%. For the same compound, the IC50 came to 37.9 ± 1.89 nM at PARP-1 enzyme, 12.2 ± 0.49 µM in assay [2] (setting [5]) and 5.93 ± 0.19 µM in assay [3] (setting [6]). Also, the EC50 in assay [1] (setting [4]) is 14 ± 1.28 µM.

Consider `COc1cc(/C=C/C(=O)N2CCN(C(=O)c3cc(Cc4n[nH]c(=O)c5ccccc45)ccc3F)CC2)cc(OC)c1OC` [5n, (E)-4-{[3-[4–(3-(3,4,5-trimethoxyphenyl)acryloyl)piperazine-1-carbonyl]-4-fluorophenyl]methyl} -2H -phthalazin-1-one], for which, on PARP-1 enzyme, the inhibition at 0.5 µM is 66 ± 4.82%. In addition, the EC50 in assay [1] (setting [4]) amounted to 31.2 ± 4.12 µM. The values for the 50% inhibitory concentration (IC50) in assay [2] (setting [5]) and in assay [3] (setting [6]) were 99.1 ± 2.21 µM and 65.2 ± 1.08 µM, respectively.

As for `O=C(/C=C/c1ccco1)N1CCN(C(=O)c2cc(Cc3n[nH]c(=O)c4ccccc34)ccc2F)CC1` [5o, (E)-4-{[3-[4-(3-(furan-2-yl)acryloyl)piperazine-1-carbonyl]-4-fluorophenyl]methyl} -2H -phthalazin-1-one], the inhibition at 0.5 µM on PARP-1 enzyme is 65.2 ± 5.98%. Besides, the EC50 in assay [1] (setting [4]) was 32.2 ± 3.58 µM. Moreover, the IC50 in assay [2] (setting [5]) was 114 ± 14.9 µM; in assay [3] (setting [6]) it was 77.6 ± 9.06 µM.

`CN(C)C(=O)Oc1cccc([N+](C)(C)C)c1` [Neostigmine, reference compound]: the IC50 in assay [2] came out at 0.04 ± 0.01 µM; in assay [3] it was 12 ± 0.45 µM.

Consider `O=C(c1cc(Cc2n[nH]c(=O)c3ccccc23)ccc1F)N1CCN(C(=O)C2CC2)CC1` [Olaparib], for which, in assay [1] (MDA-MB-436, 72 h), the EC50 was found to be 8.63 ± 1.25 µM. Further, the values for the IC50 in assay [2] (setting [5]) and in assay [3] (setting [6]) were 50.95 ± 0.46 µM and 34.4 ± 0.64 µM, respectively.
